Results published in PubChem BioAssay AID330 (DTP/NCI, 2004).
Values joined by “and” are separate entries in the source; they are usually repeats but may differ in a detail not shown here. Equal values may be shown once. Inconclusive results and toxic doses are left out. Rule for the calls: active = survival T/C of 150% or more; inactive = T/C below 125% in these data.

Tested on: P388 leukemia ip, CD2F1 mice, survival T/C
Experiment: NCI In Vivo Anticancer Drug Screen. Data for tumor model P388 Leukemia (intraperitoneal) in CD2F1 (CDF1) mice
Details: endpoint: median survival time, higher = longer survival
Outline: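 Mice carrying the transplanted tumor received test compound or vehicle. Survival was recorded in each group, and the value is the treated-group measurement divided by that of the vehicle-treated control group.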

[1] = dose: 25.0 mg/kg/injection, schedule: Q01DX009 (ip), vehicle: other
[2] = dose: 60.0 mg/kg/injection, schedule: Q01DX005 (ip), vehicle: Klucel (hydroxypropylcellulose) (HPC)
[3] = dose: 120.0 mg/kg/injection, schedule: Q01DX005 (ip), vehicle: Klucel (hydroxypropylcellulose) (HPC)
[4] = dose: 50.0 mg/kg/injection, schedule: Q01DX005 (ip), vehicle: Klucel (hydroxypropylcellulose) (HPC)
[5] = dose: 100.0 mg/kg/injection, schedule: Q01DX005 (ip), vehicle: Klucel (hydroxypropylcellulose) (HPC)
[6] = dose: 200.0 mg/kg/injection, schedule: Q01DX005 (ip), vehicle: Klucel (hydroxypropylcellulose) (HPC)
[7] = dose: 50.0 mg/kg/injection, schedule: Q01DX005 (ip), vehicle: saline with Tween-80
[8] = dose: 50.0 mg/kg/injection, schedule: Q01DX009 (ip), vehicle: Klucel (hydroxypropylcellulose) (HPC)
[9] = dose: 100.0 mg/kg/injection, schedule: Q01DX005 (ip), vehicle: saline with Tween-80
[10] = dose: 200.0 mg/kg/injection, schedule: Q01DX005 (ip), vehicle: saline with Tween-80
[11] = dose: 100.0 mg/kg/injection, schedule: Q01DX001 (ip), vehicle: Klucel (hydroxypropylcellulose) (HPC)
[12] = dose: 25.0 mg/kg/injection, schedule: Q01DX009 (ip), vehicle: saline
[13] = dose: 50.0 mg/kg/injection, schedule: Q01DX009 (ip), vehicle: saline
[14] = dose: 60.0 mg/kg/injection, schedule: Q01DX005 (ip), vehicle: saline with Tween-80
[15] = dose: 120.0 mg/kg/injection, schedule: Q01DX005 (ip), vehicle: saline with Tween-80

Measured: T/C

NCCS(=O)(=O)O
inactive: dose: 100.0 mg/kg/injection, schedule: Q01DX009 (ip), vehicle: water 90 % of control | dose: 200.0 mg/kg/injection, schedule: Q01DX009 (ip), vehicle: water 86 % of control | dose: 400.0 mg/kg/injection, schedule: Q01DX009 (ip), vehicle: water 86 % of control | dose: 800.0 mg/kg/injection, schedule: Q01DX009 (ip), vehicle: water 90 % of control

COc1cc2c[n+](C)c3c4cc5c(cc4ccc3c2cc1OC)OCO5 (tested in a mixture with another compound)
inactive: dose: 3.13 mg/kg/injection, schedule: Q01DX009 (ip), vehicle: other 103 % of control | dose: 7.4 mg/kg/injection, schedule: Q01DX009 (ip), vehicle: other 116 % of control | dose: 50.0 mg/kg/injection, schedule: Q01DX009 (ip), vehicle: water 99 % of control
active: dose: 6.25 mg/kg/injection, schedule: Q01DX009 (ip), vehicle: Klucel (hydroxypropylcellulose) (HPC) 159 % of control | dose: 6.25 mg/kg/injection, schedule: Q01DX009 (ip), vehicle: other 151 % of control | dose: 12.5 mg/kg/injection, schedule: Q01DX009 (ip), vehicle: other 156 % of control | [1] 173 % of control

COc1ccc(-n2cc[n+](C)c2/C=N\O)cc1
inactive: dose: 50.0 mg/kg/injection, schedule: Q01DX009 (ip), vehicle: saline with Tween-80 97 % of control | dose: 100.0 mg/kg/injection, schedule: Q01DX009 (ip), vehicle: saline with Tween-80 98 % of control

COc1ccc(C(c2cc3c(cc2O)OCO3)N2CCN(C(c3cc4c(cc3O)OCO4)c3ccc(OC)cc3OC)CC2)c(OC)c1 (configuration not stated)
inactive: [2] 88 % of control | [3] 86 % of control

CCN1C(=O)NC(=O)C(CC)(N2CCCCC2)C1=O (configuration not stated)
inactive: [4] 111 % of control | [5] 98 % of control | [6] 104 % of control

Nc1ccc(N)c2c1C(=O)c1ccccc1C2=O
inactive: [7] 110 % of control | [8] 105 % of control | [9] 105 % of control | dose: 100.0 mg/kg/injection, schedule: Q01DX009 (ip), vehicle: Klucel (hydroxypropylcellulose) (HPC) 103 % of control | [10] 105 % of control

O=[N+]([O-])c1cccc(N/N=C\c2cccc3c(/C=N/Nc4cccc([N+](=O)[O-])c4)c(Cl)n(-c4ccccc4)c23)c1
inactive: [11] 86 % of control

CC(=O)NC(Cc1ccc(N(CCCl)CCCl)cc1)C(=O)NC(CC(C)C)C(=O)O (configuration not stated)
inactive: dose: 5.0 mg/kg/injection, schedule: Q04DX003 (ip), vehicle: water 100 % of control | dose: 8.4 mg/kg/injection, schedule: Q04DX003 (ip), vehicle: saline with Tween-80 111 % of control | dose: 10.0 mg/kg/injection, schedule: Q04DX003 (ip), vehicle: water 95 % of control | dose: 18.9 mg/kg/injection, schedule: Q04DX003 (ip), vehicle: saline with Tween-80 121 % of control | dose: 20.0 mg/kg/injection, schedule: Q04DX003 (ip), vehicle: water 118 % of control
active: dose: 42.6 mg/kg/injection, schedule: Q04DX003 (ip), vehicle: saline with Tween-80 173 % of control | dose: 64.0 mg/kg/injection, schedule: Q04DX003 (ip), vehicle: saline with Tween-80 166 % of control | dose: 96.0 mg/kg/injection, schedule: Q04DX003 (ip), vehicle: saline with Tween-80 180 % of control

Cc1cc(C)c(S(=O)(=O)n2ccnc2)c(C)c1
inactive: [12] 111 % of control | [13] 97 % of control | dose: 100.0 mg/kg/injection, schedule: Q01DX009 (ip), vehicle: saline 103 % of control | dose: 200.0 mg/kg/injection, schedule: Q01DX009 (ip), vehicle: saline 106 % of control

COc1ccc(/C=N/NC(=O)CNC(=O)c2ccc(Cl)c(Cl)c2)cc1
inactive: dose: 3.13 mg/kg/injection, schedule: Q01DX009 (ip), vehicle: saline with Tween-80 100 % of control | dose: 6.25 mg/kg/injection, schedule: Q01DX009 (ip), vehicle: saline with Tween-80 108 % of control | dose: 12.5 mg/kg/injection, schedule: Q01DX009 (ip), vehicle: saline with Tween-80 107 % of control

CCN(CC)C(=S)Cl
inactive: [7] 107 % of control | [9] 106 % of control | [10] 101 % of control

C[C@H]1C(=O)O[C@@H]2CCN3CC=C(COC(=O)[C@](C)(O)[C@@]1(C)O)[C@H]23
inactive: dose: 3.13 mg/kg/injection, schedule: Q01DX010 (ip), vehicle: saline 95 % of control | dose: 6.25 mg/kg/injection, schedule: Q01DX010 (ip), vehicle: saline 100 % of control | dose: 12.5 mg/kg/injection, schedule: Q01DX010 (ip), vehicle: saline 104 % of control | dose: 25.0 mg/kg/injection, schedule: Q01DX010 (ip), vehicle: saline 100 % of control

CC1(C(F)(F)F)CC(=O)NN1 (configuration not stated)
inactive: [12] 104 % of control | [13] 118 % of control

COn1nnc2ccc(N)cc21
inactive: dose: 100.0 mg/kg/injection, schedule: Q04DX002 (ip), vehicle: saline 99 % of control | dose: 200.0 mg/kg/injection, schedule: Q04DX002 (ip), vehicle: saline 102 % of control

O=C(Cc1ccccc1)c1ccc(C(F)(F)F)cc1
inactive: dose: 12.5 mg/kg/injection, schedule: Q01DX009 (ip), vehicle: Klucel (hydroxypropylcellulose) (HPC) 104 % of control | dose: 25.0 mg/kg/injection, schedule: Q01DX009 (ip), vehicle: Klucel (hydroxypropylcellulose) (HPC) 95 % of control | [8] 104 % of control and 87 % of control

O=S1(=O)N=C(N2CCCCC2)c2ccccc21
inactive: [7] 99 % of control | [9] 96 % of control | [10] 97 % of control

COc1cc(NCCCCCN=C(N)NC#N)c2ncccc2c1
inactive: [4] 99 % of control | [5] 98 % of control | [6] 92 % of control

Cc1cc2c(cc1C)-c1nn(-c3ccccc3)c(-c3ccc(Cl)cc3)c1CCO2
inactive: dose: 12.5 mg/kg/injection, schedule: Q01DX005 (ip), vehicle: saline with Tween-80 92 % of control | dose: 25.0 mg/kg/injection, schedule: Q01DX005 (ip), vehicle: saline with Tween-80 99 % of control | [7] 93 % of control and 94 % of control

O=c1nc(Oc2ccc(Cl)cc2Cl)oc2cc(Cl)ccc12
inactive: [14] 94 % of control | [15] 94 % of control

CCc1cccc(C)c1NC(=O)CCC(=O)OC
inactive: [14] 102 % of control | [15] 97 % of control | dose: 240.0 mg/kg/injection, schedule: Q01DX005 (ip), vehicle: saline with Tween-80 96 % of control

CCc1nc(Cc2ccccc2)nc2c1nc(-c1ccccc1)n2Nc1ccccc1
inactive: dose: 100.0 mg/kg/injection, schedule: Q01DX001 (ip), vehicle: saline with Tween-80 92 % of control | dose: 200.0 mg/kg/injection, schedule: Q01DX001 (ip), vehicle: saline with Tween-80 98 % of control | dose: 400.0 mg/kg/injection, schedule: Q01DX001 (ip), vehicle: saline with Tween-80 92 % of control

NC(=O)/C=C/C(=O)NC(=O)Cc1ccccc1
inactive: dose: 1.5 mg/kg/injection, schedule: Q01DX009 (ip), vehicle: saline with Tween-80 109 % of control | dose: 3.0 mg/kg/injection, schedule: Q01DX009 (ip), vehicle: saline with Tween-80 110 % of control and 119 % of control | dose: 6.0 mg/kg/injection, schedule: Q01DX009 (ip), vehicle: saline with Tween-80 109 % of control and 116 % of control

O=C(NC(Cc1ccccc1)C(=O)O)OCCc1ccccn1 (configuration not stated)
inactive: [2] 104 % of control | [3] 92 % of control | dose: 240.0 mg/kg/injection, schedule: Q01DX005 (ip), vehicle: Klucel (hydroxypropylcellulose) (HPC) 102 % of control

CC1=C(C(=O)CC(=O)C(=O)Nc2ccc(Cl)cc2Cl)Sc2ccccc2N1
inactive: [14] 100 % of control | [15] 100 % of control

O=C1c2ccccc2C2(O)C(=O)c3ccccc3C12 (configuration not stated)
inactive: [11] 102 % of control | dose: 200.0 mg/kg/injection, schedule: Q01DX001 (ip), vehicle: Klucel (hydroxypropylcellulose) (HPC) 105 % of control | dose: 400.0 mg/kg/injection, schedule: Q01DX001 (ip), vehicle: Klucel (hydroxypropylcellulose) (HPC) 108 % of control

C[P+](C)(C)C
inactive: [14] 87 % of control | [15] 93 % of control

NC(CSCSCc1ccccc1)C(=O)O (configuration not stated)
inactive: [1] 102 % of control | dose: 50.0 mg/kg/injection, schedule: Q01DX009 (ip), vehicle: other 110 % of control | dose: 100.0 mg/kg/injection, schedule: Q01DX009 (ip), vehicle: other 102 % of control | dose: 200.0 mg/kg/injection, schedule: Q01DX009 (ip), vehicle: other 106 % of control
